This note sets out measurements from PubChem BioAssay AID1259411 (Chemical Carcinogenesis Research Information System (CCRIS), 2018).

The data set deals with rodent carcinogenicity bioassays, tumor incidence. Briefly: CCRIS carcinogenicity studies. The method, boiled down: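 Archive of carcinogenicity, mutagenicity, tumor promotion and tumor inhibition results drawn from journals, NCI reports and other sources, expert-reviewed; covers 1985-2011 and is no longer updated.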

Calls of active or inactive are those of the source. The rule behind the calls is not given here.

Take `Cc1cnc2ccc3c(nc(N)n3C)c2n1`: the carcinogen call was “inactive; negative” (Species: MONKEY, Strain/Sex: CYNOMOLGUS/FEMALE, Route: GAVAGE, Dose: 0, 10, 20 MG/KG BW FOR 84 MONTHS (STUDY DURATION: 92 MONTHS), Dose: 0, 10, 20 MG/KG BW FOR 84 MONTHS (STUDY DURATION: 92 MONTHS)); “inactive; negative” (Species: MONKEY, Strain/Sex: CYNOMOLGUS/MALE, Route: GAVAGE, Dose: 0, 10, 20 MG/KG BW FOR 84 MONTHS (STUDY DURATION: 92 MONTHS), Dose: 0, 10, 20 MG/KG BW FOR 84 MONTHS (STUDY DURATION: 92 MONTHS)); “inactive; negative” (Species: MOUSE, Strain/Sex: B6C3F1/MALE, Route: INTRAPERITONEAL, Dose: 0, 0.625 UMOL IN 35 µL DMSO ON D 1, 8, AND 15 AFTER BIRTH (STUDY DURATION: 8 MO)); “active; positive” (Species: MOUSE, Strain/Sex: B6C3F1/MALE, Route: INTRAPERITONEAL, Dose: 0, 0.625 UMOL IN 35 µL DMSO ON D 1, 8, AND 15 AFTER BIRTH (STUDY DURATION: 12 MO), Tumor Site: Type of Lesion: LIVER: HEPATOCELLULAR ADENOMA); “inactive; negative” (Species: MOUSE, Strain/Sex: B6C3F1/MALE, Route: INTRAPERITONEAL, Dose: 0, 1.25 UMOL IN 35 µL DMSO ON D 1, 8, AND 15 AFTER BIRTH (STUDY DURATION: 8 MO)); “active; positive” (Species: MOUSE, Strain/Sex: B6C3F1/MALE, Route: INTRAPERITONEAL, Dose: 0, 1.25 UMOL IN 35 µL DMSO ON D 1, 8, AND 15 AFTER BIRTH (STUDY DURATION: 12 MO), Tumor Site: Type of Lesion: LIVER: HEPATOCELLULAR ADENOMA, HEPATOCELLULAR CARCINOMA). For the same molecule, the carcinogen call is “inactive; negative” (Species: MOUSE, Strain/Sex: C57BL/6J/MALE (20/GROUP), Route: DIET, Dose: 0, 30, 300 PPM FOR 78 WK (STUDY DURATION: 78 WK), Dose: 0, 30, 300 PPM FOR 78 WK (STUDY DURATION: 78 WK)); “active; positive” (Species: MOUSE, Strain/Sex: CDF1/FEMALE, Route: ORAL, Dose: 0, 0.06% IN DIET FOR 84 WK (STUDY DURATION: 84 WK), Tumor Site: Type of Lesion: LIVER: TUMOR, LUNG: ADENOMA OR ADENOCARCINOMA); “active; positive” (Species: MOUSE, Strain/Sex: CDF1/MALE, Route: ORAL, Dose: 0, 0.06% IN DIET FOR 84 WK (STUDY DURATION: 84 WK), Tumor Site: Type of Lesion: LIVER: TUMOR, LYMPHATIC SYSTEM: LYMPHOMA OR LEUKEMIA); “active; positive” (Species: RAT, Strain/Sex: F344/FEMALE, Route: ORAL, Dose: 0, 0.04% IN DIET FOR DURATION OF STUDY (STUDY DURATION: 429 D), Tumor Site: Type of Lesion: LIVER: TUMOR, ZYMBAL GLAND: TUMOR, CLITORAL GLAND: TUMOR, Tumor Site: Type of Lesion: LIVER: TUMOR, ZYMBAL GLAND: TUMOR, CLITORAL GLAND: TUMOR); “active; positive” (Species: RAT, Strain/Sex: F344/MALE, Route: ORAL, Dose: 0, 0.04% IN DIET FOR DURATION OF STUDY (STUDY DURATION: 429 D), Tumor Site: Type of Lesion: LIVER: TUMOR, ZYMBAL GLAND: TUMOR, SKIN: TUMOR, Tumor Site: Type of Lesion: LIVER: TUMOR, ZYMBAL GLAND: TUMOR, SKIN: TUMOR); “active; positive” (Species: RAT, Strain/Sex: F344/MALE, Route: ORAL, Dose: 0, 100, 200, 400 PPM IN DIET FOR 56 WK (STUDY DURATION: 56 WK), Dose: 0, 100, 200, 400 PPM IN DIET FOR 56 WK (STUDY DURATION: 56 WK), Tumor Site: Type of Lesion: LIVER: HEPATOCELLULAR ADENOMA, HEPATOCELLULAR CARCINOMA, ZYMBAL GLAND: SQUAMOUS CELL CARCINOMA, SKIN: TUMOR, Tumor Site: Type of Lesion: LIVER: HEPATOCELLULAR ADENOMA, HEPATOCELLULAR CARCINOMA, ZYMBAL GLAND: SQUAMOUS CELL CARCINOMA, SKIN: TUMOR). In addition, the carcinogen call reads like this: (Species: RAT, Strain/Sex: LEA/MALE, Route: ORAL, Dose: 0, 40 PPM IN DIET FOR 40 WK (STUDY DURATION: 40 WK)) “inactive; negative”; (Species: RAT, Strain/Sex: LEC/MALE, Route: ORAL, Dose: 0, 40 PPM IN DIET FOR 40 WK (STUDY DURATION: 40 WK), Tumor Site: Type of Lesion: LIVER: TUMOR) “active; positive”; (Species: RAT, Strain/Sex: SPRAGUE-DAWLEY/FEMALE, Route: GAVAGE, Dose: 75 MG/KG/D FOR 10 D, THEN PLACED ON A HIGH-FAT DIET (STUDY DURATION: 46 WK), Tumor Site: Type of Lesion: MAMMARY GLAND: CARCINOMA, ADENOMA) “active; positive”.

With `CCCCCCC(=O)O[C@H]1CC[C@H]2[C@@H]3CCC4=CC(=O)CC[C@]4(C)[C@H]3CC[C@]12C`, the carcinogen call reads like this: (Species: RAT, Strain/Sex: WISTAR/FEMALE, Route: INTRAMUSCULAR, Dose: 0, 12.5 MG 1/WK FOR 24 WK (STUDY DURATION: 24 WK), Tumor Site: Type of Lesion: BLADDER: PAPILLOMA OR CARCINOMA) “active; positive”; (Species: RAT, Strain/Sex: WISTAR/FEMALE, Route: INTRAMUSCULAR, Dose: 0, 12.5 MG 1/WK FOR 24 WK ADMINISTERED TO OOPHORECTOMIZED RATS (STUDY DURATION: 24 WK)) “inactive; negative”.

As to `O=NN1CCN(N=O)CC1`, the carcinogen call (Species: RAT, Strain/Sex: F344/FEMALE, Route: INTRAVESICAL, Dose: 0, 374 MG (TOTAL DOSE) INJECTED INTO BLADDER 2/WK OVER 36 WK (STUDY DURATION: 102 WK), Tumor Site: Type of Lesion: NASAL CAVITY: TUMOR) was “active; positive”.

In the case of `O=[N+]([O-])c1ccc2c(c1)Cc1ccccc1-2`, the carcinogen call (Species: RAT, Strain/Sex: WISTAR/MALE, Route: ORAL, Dose: 0, 0.24, 0.95, 2.37 MMOL/KG DIET FOR 11 MO FOLLOWED BY BASAL DIET FOR 13 MO (STUDY DURATION: 24 MO), Dose: 0, 0.24, 0.95, 2.37 MMOL/KG DIET FOR 11 MO FOLLOWED BY BASAL DIET FOR 13 MO (STUDY DURATION: 24 MO), Tumor Site: Type of Lesion: LIVER: HEPATOCELLULAR CARCINOMA, FORESTOMACH: SQUAMOUS CELL CARCINOMA, KIDNEY: CARCINOMA, Tumor Site: Type of Lesion: LIVER: HEPATOCELLULAR CARCINOMA, FORESTOMACH: SQUAMOUS CELL CARCINOMA, KIDNEY: CARCINOMA) was “active; positive”.

As for `O[C@H]1C=Cc2cc3ccc4ccccc4c3nc2[C@@H]1O`, the carcinogen call is “active; positive” (Species: MOUSE, Strain/Sex: SWISS/FEMALE, Route: INTRAPERITONEAL, Dose: 0, 1.05 UMOL GIVEN AS 150 NMOL IN 5 µL DMSO WITHIN 24 HR OF BIRTH, 300 NMOL IN 10 µL DMSO ON D 8 OF LIFE, AND 600 NMOL I, Tumor Site: Type of Lesion: LUNG: ADENOMA) and “active; positive” (Species: MOUSE, Strain/Sex: SWISS/MALE, Route: INTRAPERITONEAL, Dose: 0, 1.05 UMOL GIVEN AS 150 NMOL IN 5 µL DMSO WITHIN 24 HR OF BIRTH, 300 NMOL IN 10 µL DMSO ON D 8 OF LIFE, AND 600 NMOL I, Tumor Site: Type of Lesion: LUNG: ADENOMA, LIVER: NEOPLASTIC NODULE).

As to `COc1ccccc1N`, the carcinogen call was “active; positive” (Species: MOUSE, Strain/Sex: B6C3F1/FEMALE, Route: ORAL, Dose: 0, 2500, 5000 PPM IN DIET FOR 103 WK (STUDY DURATION: 105 WK), Dose: 0, 2500, 5000 PPM IN DIET FOR 103 WK (STUDY DURATION: 105 WK), Tumor Site: Type of Lesion: URINARY BLADDER: TRANSITIONAL CELL CARCINOMA, TRANSITIONAL CELL PAPILLOMA OR CARCINOMA); “active; positive” (Species: MOUSE, Strain/Sex: B6C3F1/MALE, Route: ORAL, Dose: 0, 2500, 5000 PPM IN DIET FOR 103 WK (STUDY DURATION: 104-105 WK), Dose: 0, 2500, 5000 PPM IN DIET FOR 103 WK (STUDY DURATION: 104-105 WK), Tumor Site: Type of Lesion: URINARY BLADDER: TRANSITIONAL CELL CARCINOMA, TRANSITIONAL CELL PAPILLOMA OR CARCINOMA); “active; positive” (Species: RAT, Strain/Sex: F344/FEMALE, Route: ORAL, Dose: 0, 5000, 10000 PPM IN DIET FOR 83-103 WK (STUDY DURATION: 83-107 WK), Dose: 0, 5000, 10000 PPM IN DIET FOR 83-103 WK (STUDY DURATION: 83-107 WK), Tumor Site: Type of Lesion: URINARY BLADDER: TRANSITIONAL CELL CARCINOMA, TRANSITIONAL CELL PAPILLOMA OR CARCINOMA); “active; positive” (Species: RAT, Strain/Sex: F344/MALE, Route: ORAL, Dose: 0, 5000, 10000 PPM IN DIET FOR 88-103 WK (STUDY DURATION: 88-106 WK), Dose: 0, 5000, 10000 PPM IN DIET FOR 88-103 WK (STUDY DURATION: 88-106 WK), Tumor Site: Type of Lesion: KIDNEY OR KIDNEY (PELVIS): TRANSITIONAL CELL CARCINOMA, URINARY BLADDER: TRANSITIONAL CELL CARCINOMA, TRANSITIONAL CELL).
